Source: PubChem BioAssay AID248 (DTP/NCI, 2004)
Where “and” joins values, the source holds several entries; their conditions need not be identical. Identical values can stand only once. Toxic doses and inconclusive results are not listed. Cut-off read from the data, not from the text of the source: active = T/C of 150% or more; inactive = T/C below 125%.

Test system: L1210 leukemia ip in BDF1 mice, survival T/C
Test: NCI In Vivo Anticancer Drug Screen. Data for tumor model L1210 Leukemia (intraperitoneal) in B6D2F1 (BDF1) mice
Settings: endpoint: mean survival time, higher = longer survival
How it was run: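 Tumor cells were implanted, animals were treated, and survival was followed. The result divides the treated measurement by the vehicle-control measurement.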

[1] = dose: 100.0 mg/kg/injection, schedule: Q01DX001 (ip), vehicle: saline
[2] = dose: 100.0 mg/kg/injection, schedule: Q04DX003 (ip), vehicle: saline
[3] = dose: 200.0 mg/kg/injection, schedule: Q01DX001 (ip), vehicle: saline
[4] = dose: 200.0 mg/kg/injection, schedule: Q04DX003 (ip), vehicle: saline
[5] = dose: 100.0 mg/kg/injection, schedule: Q01DX001 (ip), vehicle: saline with Tween-80
[6] = dose: 200.0 mg/kg/injection, schedule: Q01DX001 (ip), vehicle: saline with Tween-80
[7] = dose: 400.0 mg/kg/injection, schedule: Q01DX001 (ip), vehicle: saline with Tween-80
[8] = dose: 100.0 mg/kg/injection, schedule: Q01DX009 (ip), vehicle: Klucel (hydroxypropylcellulose) (HPC)
[9] = dose: 100.0 mg/kg/injection, schedule: Q04DX003 (ip), vehicle: Klucel (hydroxypropylcellulose) (HPC)
[10] = dose: 200.0 mg/kg/injection, schedule: Q01DX009 (ip), vehicle: Klucel (hydroxypropylcellulose) (HPC)
[11] = dose: 200.0 mg/kg/injection, schedule: Q04DX003 (ip), vehicle: Klucel (hydroxypropylcellulose) (HPC)
[12] = dose: 400.0 mg/kg/injection, schedule: Q01DX009 (ip), vehicle: Klucel (hydroxypropylcellulose) (HPC)
[13] = dose: 400.0 mg/kg/injection, schedule: Q04DX003 (ip), vehicle: Klucel (hydroxypropylcellulose) (HPC)

Measured: T/C

CCOC(=O)COc1c(C(C)(C)C)cc([N+](=O)[O-])c(C)c1[N+](=O)[O-]
inactive: dose: 100.0 mg/kg/injection, schedule: Q04DX002 (ip), vehicle: Klucel (hydroxypropylcellulose) (HPC) 100 % of control | dose: 200.0 mg/kg/injection, schedule: Q04DX002 (ip), vehicle: Klucel (hydroxypropylcellulose) (HPC) 91 % of control | dose: 400.0 mg/kg/injection, schedule: Q04DX002 (ip), vehicle: Klucel (hydroxypropylcellulose) (HPC) 106 % of control

CSC(N)=Nc1c(C)cccc1C
inactive: dose: 50.0 mg/kg/injection, schedule: Q04DX003 (ip), vehicle: saline 102 % of control | [1] 98 % of control | [2] 106 % of control | [3] 100 % of control | [4] 101 % of control

COc1ccc(/C=N\NC(=O)CNC(=O)Nc2cccc(Cl)c2)cc1O
inactive: dose: 50.0 mg/kg/injection, schedule: Q01DX009 (ip), vehicle: saline with Tween-80 95 % of control | dose: 100.0 mg/kg/injection, schedule: Q01DX009 (ip), vehicle: saline with Tween-80 92 % of control | dose: 200.0 mg/kg/injection, schedule: Q01DX009 (ip), vehicle: saline with Tween-80 92 % of control

O=C(O)CCCCCCC(=O)c1ccccc1
inactive: [5] 98 % of control | [6] 95 % of control | [7] 98 % of control

CCCCNC(=O)c1ccccc1N
inactive: dose: 50.0 mg/kg/injection, schedule: Q04DX003 (ip), vehicle: other 103 % of control | dose: 100.0 mg/kg/injection, schedule: Q04DX003 (ip), vehicle: other 95 % of control and 101 % of control | dose: 200.0 mg/kg/injection, schedule: Q04DX003 (ip), vehicle: other 92 % of control | dose: 400.0 mg/kg/injection, schedule: Q04DX003 (ip), vehicle: other 90 % of control

CS(N)(=O)=O
inactive: dose: 12.5 mg/kg/injection, schedule: Q04DX002 (ip), vehicle: saline 111 % of control | dose: 25.0 mg/kg/injection, schedule: Q04DX002 (ip), vehicle: saline 96 % of control | dose: 50.0 mg/kg/injection, schedule: Q04DX002 (ip), vehicle: saline 96 % of control

O=C(NCCCl)Nc1ncccn1
inactive: dose: 100.0 mg/kg/injection, schedule: Q01DX001 (ip), vehicle: carboxymethylcellulose (CMC) 97 % of control | dose: 200.0 mg/kg/injection, schedule: Q01DX001 (ip), vehicle: carboxymethylcellulose (CMC) 106 % of control | dose: 400.0 mg/kg/injection, schedule: Q01DX001 (ip), vehicle: carboxymethylcellulose (CMC) 103 % of control

CCC(=O)c1ccc(OC(C)=O)c(OC(C)=O)c1
inactive: dose: 50.0 mg/kg/injection, schedule: Q01DX001 (ip), vehicle: saline 101 % of control | [1] 101 % of control | [2] 100 % of control | [3] 109 % of control | [4] 97 % of control | dose: 400.0 mg/kg/injection, schedule: Q01DX001 (ip), vehicle: saline 97 % of control | dose: 400.0 mg/kg/injection, schedule: Q04DX003 (ip), vehicle: saline 100 % of control

Cc1cccc(NC(=O)NCCCl)c1Cl
inactive: [8] 97 % of control | [9] 97 % of control | [10] 97 % of control | [11] 94 % of control | [12] 100 % of control | [13] 94 % of control

COc1ccc(C2NC(=O)CCC2N)cc1OC (stereo not given)
inactive: [5] 99 % of control | [6] 101 % of control | [7] 95 % of control

O=C1OCC/C1=C\C1CO1 (stereo not given)
inactive: dose: 100.0 mg/kg/injection, schedule: Q04DX002 (ip), vehicle: saline 97 % of control | dose: 200.0 mg/kg/injection, schedule: Q04DX002 (ip), vehicle: saline 95 % of control | dose: 400.0 mg/kg/injection, schedule: Q04DX002 (ip), vehicle: saline 101 % of control

NNC(=O)C1CCC1C(=O)NN (stereo not given)
inactive: dose: 75.0 mg/kg/injection, schedule: Q01DX001 (ip), vehicle: saline 103 % of control | dose: 75.0 mg/kg/injection, schedule: Q04DX003 (ip), vehicle: saline 96 % of control | dose: 150.0 mg/kg/injection, schedule: Q01DX001 (ip), vehicle: saline 99 % of control | dose: 150.0 mg/kg/injection, schedule: Q04DX003 (ip), vehicle: saline 103 % of control | dose: 300.0 mg/kg/injection, schedule: Q01DX001 (ip), vehicle: saline 97 % of control | dose: 300.0 mg/kg/injection, schedule: Q04DX003 (ip), vehicle: saline 103 % of control

CN(C)C(C#N)c1c[nH]c2ccccc12 (stereo not given)
inactive: dose: 12.5 mg/kg/injection, schedule: Q01DX009 (ip), vehicle: Klucel (hydroxypropylcellulose) (HPC) 87 % of control | dose: 12.5 mg/kg/injection, schedule: Q04DX003 (ip), vehicle: Klucel (hydroxypropylcellulose) (HPC) 97 % of control | dose: 25.0 mg/kg/injection, schedule: Q01DX009 (ip), vehicle: Klucel (hydroxypropylcellulose) (HPC) 97 % of control | dose: 25.0 mg/kg/injection, schedule: Q04DX003 (ip), vehicle: Klucel (hydroxypropylcellulose) (HPC) 97 % of control | dose: 50.0 mg/kg/injection, schedule: Q04DX003 (ip), vehicle: Klucel (hydroxypropylcellulose) (HPC) 94 % of control

CCOC(=S)c1cccc(S(=O)(=O)Nc2ccc(OCC)cc2)c1
inactive: [5] 105 % of control | [6] 105 % of control | [7] 108 % of control

O=C1OC(C(Cl)(Cl)Cl)OC1C(Cl)(Cl)Cl (stereo not given)
inactive: dose: 25.0 mg/kg/injection, schedule: Q01DX001 (ip), vehicle: saline with Tween-80 98 % of control | dose: 50.0 mg/kg/injection, schedule: Q01DX001 (ip), vehicle: saline with Tween-80 96 % of control | [5] 93 % of control

OCC1OC(n2cnc3c(SCc4ccccc4)nc(Cl)cc32)C(O)C1O (stereo not given)
inactive: dose: 100.0 mg/kg/injection, schedule: Q01DX005 (ip), vehicle: saline 95 % of control | dose: 200.0 mg/kg/injection, schedule: Q01DX005 (ip), vehicle: saline 93 % of control

O=C(NCNC(=O)c1ccccc1)c1ccccc1
inactive: [9] 100 % of control | [10] 103 % of control | [11] 90 % of control | [12] 92 % of control | [13] 103 % of control

CC1CC(C)(C)[N+](C)=C(CC(O)(c2ccccc2)c2ccccc2)O1 (stereo not given)
inactive: dose: 6.25 mg/kg/injection, schedule: Q04DX003 (ip), vehicle: saline sonified 95 % of control | dose: 12.5 mg/kg/injection, schedule: Q04DX003 (ip), vehicle: saline sonified 104 % of control | dose: 25.0 mg/kg/injection, schedule: Q04DX003 (ip), vehicle: saline sonified 92 % of control

c1ccc2c3c(ccc2c1)CCC/C3=N\N=C1/CCCc2ccc3ccccc3c21
inactive: [9] 90 % of control | [11] 98 % of control | [13] 92 % of control

CC(=O)C(C(C)=O)c1cc(NS(=O)(=O)c2ccccc2)ccc1O
inactive: [5] 100 % of control | [6] 104 % of control | [7] 89 % of control

O=C1OCC(O)C(O)C(O)C(O)C1O (stereo not given)
inactive: dose: 100.0 mg/kg/injection, schedule: Q01DX009 (ip), vehicle: saline 102 % of control | dose: 200.0 mg/kg/injection, schedule: Q01DX009 (ip), vehicle: saline 100 % of control | dose: 400.0 mg/kg/injection, schedule: Q01DX009 (ip), vehicle: saline 102 % of control

CCCCCCN1C(=O)c2ccccc2S1(=O)=O
inactive: dose: 222.0 mg/kg/injection, schedule: Q01DX Z (ip), vehicle: methylcellulose (MC) 101 % of control | dose: 333.0 mg/kg/injection, schedule: Q01DX Z (ip), vehicle: methylcellulose (MC) 113 % of control | dose: 500.0 mg/kg/injection, schedule: Q01DX Z (ip), vehicle: methylcellulose (MC) 100 % of control

O=C(O)CSC(=S)SCC(=O)O
inactive: [8] 100 % of control | [9] 100 % of control | [10] 97 % of control | [11] 105 % of control | [13] 101 % of control

COc1c(O)c2c(c3cc(C(=O)N4CCc5c4c(O)c(OC)c4[nH]c(C(=O)N6CC7CC78C6=CC(=O)c6[nH]cc(C)c68)cc54)[nH]c13)CCN2C(N)=O (stereo not given)
inactive: dose: 6.25 micrograms/kg/injection, schedule: Q01DX009 (ip), vehicle: DMSO 124 % of control | dose: 12.5 micrograms/kg/injection, schedule: Q01DX009 (ip), vehicle: DMSO 111 % of control | dose: 100.0 micrograms/kg/injection, schedule: Q01DX009 (ip), vehicle: DMSO 96 % of control
